# Laboratory results: patent US20160106439A1, “PNEUMATIC TOURNIQUET” (BIONUMERIK PHARMACEUTICALS, INC., priority 2013, published 2016)
# Entries after “also recorded” stand apart in the source; their conditions may differ. Read-outs that look alike come from different tables or passages of the source.
# B1: Trx-mesna: Trx covalently modified by a Tavocept-derived mesna moiety (conjugate, UniProt P10599 2-105, looked up)
# Thioredoxin: VKQIESKTAFQEALDAAGDKLVVVDFSATWCGPCKMIKPFFHSLSEKYSNVIFLEVDVDDCQDVASECEVKCMPTFQFFKKGQKVGEFSGANKEKLEATINELV
# modifications: mesna-modified
# notes: Trx covalently modified by a Tavocept-derived mesna moiety
# B2: Trx-GSH: Trx modified by glutathione, prepared with glutathione disulfide as control (conjugate, UniProt P10599 2-105, looked up)
# Thioredoxin: B1 Thioredoxin
# modifications: glutathione-modified
# notes: Trx modified by glutathione, prepared with glutathione disulfide as control
# Tests used:
# [1] = target: T1, TrxR/Trx system (Homo sapiens, UniProt P10599); assay: NADPH oxidation by TrxR and Trx; assay type: biochemical; conditions: increasing concentrations of the substance
# T1 construct: 6xHis (N); purchased Sigma (Trx); American Diagnostica (bovine TrxR)
# T1 sequence (P10599 1-105): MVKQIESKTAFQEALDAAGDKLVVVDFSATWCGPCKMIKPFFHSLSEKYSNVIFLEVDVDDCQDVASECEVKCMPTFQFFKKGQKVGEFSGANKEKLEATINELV
# [2] = target: WT EGFR kinase (Homo sapiens, UniProt P00533); assay: WT EGFR kinase assay (ADP-glo); conditions: for more inhibition of WT EGFR relative to 4 nM Erlotinib alone: 10 μM ATP; for increased inhibition of WT EGFR relative to 20 nM Erlotinib alone: 100 μM ATP
# [3] = target: T2, Recombinant human Trx (Homo sapiens, UniProt P10599); assay type: biochemical; set-up: 6xHis (N); purchased Sigma (Trx); American Diagnostica (bovine TrxR); conditions: over MSSH and MSSCE
# T2 sequence (P10599 1-105): T1 sequence (P10599 1-105)
# Procedure: See, Luthman M and Holmgren A. Rat liver thioredoxin and thioredoxin reductase: purification and characterization. […] All disulfides were added to reactions as 10x solutions in buffer. The total volume of each reaction was 0.1 mL. Reactions were initiated by the addition of TrxR and were incubated at 25° C. for 40 minutes. Reactions were analyzed using a Molecular Devices SpectraMax Plus UV/vis plate reader and the activity was calculated using a 4 minute linear portion of each assay.
# [4] = tested on: non-small cell lung cancer; conditions: patients >=65 years treated with carboplatin and paclitaxel; cited from earlier work
# [5] = single oral dose of 100 mg, healthy volunteers; cited from earlier work
# [6] = tested on: some cell lines; assay: Mesna cytotoxicity in vitro (unpublished data)
# [7] = tested on: bovine brain microtubule protein (α-/β-tubulin); assay: Microtubule protein polymerization assay (OD350) and electron microscopy; assay type: biochemical; conditions: for effect on GTP-catalyzed microtubule protein polymerization: preincubated with microtubule protein on ice 20 minutes, 37° C.
# [8] = read-out: Cmax for mesna; 41 g/m^2 Tavocept; cited from earlier work
# [9] = target: T2, Recombinant human Trx; assay: LC MS of Trypsin digested Trx after incubation with Tavocept, mesna or glutathione; assay type: binding; set-up: purchased Sigma (SigmaAldrich); host or cells: E. coli; conditions: fragment CMPTFQFFK (cys73); 10 mM, 4 to 6 hours
# [10] = target: T3, thioredoxin (Homo sapiens, UniProt P10599); assay: LC-MS of thioredoxin incubations; assay type: binding; conditions: ion at m/z 1288.3
# T3 construct: purchased Sigma (SigmaAldrich); host or cells: E. coli
# [11] = target: T4, TrxR/Trx insulin disulfide reduction (Homo sapiens, UniProt P10599); assay: TrxR/Trx insulin disulfide reduction assay with isolated Trx species; assay type: biochemical; conditions: free Tavocept or glutathione disulfide removed
# T4 construct: purchased Sigma; host or cells: E. coli (said of the Sigma Trx)
# T4 sequence (P10599 1-105): T1 sequence (P10599 1-105)
# WT EGFR kinase, sequence (P00533 25-1210): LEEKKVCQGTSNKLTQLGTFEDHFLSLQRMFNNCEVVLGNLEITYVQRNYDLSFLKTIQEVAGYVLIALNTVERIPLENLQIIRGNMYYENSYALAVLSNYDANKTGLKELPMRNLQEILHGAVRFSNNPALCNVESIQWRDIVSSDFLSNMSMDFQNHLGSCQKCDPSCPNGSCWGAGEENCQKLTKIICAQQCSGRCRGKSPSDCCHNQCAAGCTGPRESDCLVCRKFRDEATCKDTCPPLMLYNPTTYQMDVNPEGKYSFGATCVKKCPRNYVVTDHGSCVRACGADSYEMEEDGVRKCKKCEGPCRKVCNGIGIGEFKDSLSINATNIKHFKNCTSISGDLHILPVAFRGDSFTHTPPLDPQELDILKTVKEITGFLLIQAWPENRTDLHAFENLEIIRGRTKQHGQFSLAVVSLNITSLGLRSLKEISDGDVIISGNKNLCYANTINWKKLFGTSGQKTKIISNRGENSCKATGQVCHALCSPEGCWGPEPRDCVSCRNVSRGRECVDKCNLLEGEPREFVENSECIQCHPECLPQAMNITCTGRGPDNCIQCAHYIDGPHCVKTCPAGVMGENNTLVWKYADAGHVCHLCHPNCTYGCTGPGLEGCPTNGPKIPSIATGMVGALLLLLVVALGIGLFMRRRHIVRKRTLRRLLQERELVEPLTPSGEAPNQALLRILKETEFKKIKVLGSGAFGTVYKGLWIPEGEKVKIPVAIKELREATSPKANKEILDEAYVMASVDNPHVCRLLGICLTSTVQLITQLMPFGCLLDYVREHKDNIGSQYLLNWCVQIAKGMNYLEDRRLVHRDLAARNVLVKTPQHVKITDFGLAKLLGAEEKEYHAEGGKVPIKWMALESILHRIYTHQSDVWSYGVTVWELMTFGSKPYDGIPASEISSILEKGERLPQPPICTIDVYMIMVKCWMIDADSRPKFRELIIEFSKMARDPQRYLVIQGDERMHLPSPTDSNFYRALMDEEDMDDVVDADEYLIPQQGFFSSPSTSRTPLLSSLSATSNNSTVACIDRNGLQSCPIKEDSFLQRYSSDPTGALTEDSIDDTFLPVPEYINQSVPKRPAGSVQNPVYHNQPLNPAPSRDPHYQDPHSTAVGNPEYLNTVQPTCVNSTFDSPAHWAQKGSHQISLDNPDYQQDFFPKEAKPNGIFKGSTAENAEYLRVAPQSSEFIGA
molecule,measurement,setting,value
"NC(CSSCCS(=O)(=O)O)C(=O)O (stereo not drawn) [MSSC, mesna-cysteine disulfide]",NADPH oxidation by TrxR and Trx,[1],increases
same,more inhibition of WT EGFR relative to 4 nM Erlotinib alone,[2]; 0.75 mM + 4 nM Erlotinib,16%
same,more inhibition of WT EGFR relative to 4 nM Erlotinib alone,[2]; 1.5 mM + 4 nM Erlotinib,34%
same,more inhibition of WT EGFR relative to 4 nM Erlotinib alone,[2]; 2.5 mM + 4 nM Erlotinib,54%
same,increased inhibition of WT EGFR relative to 20 nM Erlotinib alone,[2]; 0.2 mM + 20 nM Erlotinib,17%
same,increased inhibition of WT EGFR relative to 20 nM Erlotinib alone,[2]; 2.5 mM + 20 nM Erlotinib,15%
same,Substrate preference of Trx,[3],preferred slightly
bevacizumab [Avastin],Survival advantage,[4],did not confer a survival advantage
C#Cc1cccc(Nc2ncnc3cc(OCCOC)c(OCCOC)cc23)c1 [Erlotinib],Cmax,[5],1390 ng/mL
"N[C@@H](CCC(=O)N[C@@H](CSSCCS(=O)(=O)O)C(=O)NCC(=O)O)C(=O)O [MSSG, mesna-glutathione disulfide]",NADPH oxidation by TrxR and Trx,[1],increases
same,Substrate preference of Trx,[3],preferred slightly
"O=S(=O)([O-])CCS.[Na+] [mesna, 2-mercapto ethane sulfonate]",Concentrations that can be cytotoxic,[6],≤ 400 µM
same,effect alone on MTP polymerization or paclitaxel-induced hyperpolymerization,[7],no detectable effect
same,protection against monoaquocisplatin-induced loss of polymerization,[7]; mesna 200 μM preincubated 30 minutes with monoaquocisplatin 36 μM,prevented the monoaquocisplatin-induced loss; also recorded: able to protect
same,effect on GTP-catalyzed microtubule protein polymerization,[7],did not affect
same,effect on GTP-catalyzed microtubule protein polymerization,[7]; listed as Mesna,does not affect
same,Cmax,[8],~323 µM
same,Mesna-Cysteine Adduct Detected?,[9],presence of a mesna adduct on Cys73 of Trx
same,mesna adduct on thioredoxin fragment CMPTFQFFK,[10],Cys73-mesna adduct
B1,Effect on initial velocity relative to apo-Trx,[11],clear effect on initial velocity
B2,Effect on initial velocity relative to apo-Trx,[11],clear effect on initial velocity
